Values of other authors in patent EP0530832A1, “Method for processing a silver halide color photographic light-sensitive material” (KONICA CORPORATION, priority 1991, dated 1993).

Tested on: rats
Conditions: rats in an environment containing 15 ppm of formalin

For `C=O` [formalin], the nasal cancers is listed as “developed nasal cancers”.
